# Test results from PMC11394002, “5-Aminothiazoles Reveal a New Ligand-Binding Site on Prolyl Oligopeptidase Which is Important for Modulation of Its Protein–Protein Interaction-Derived Functions” (Journal of Medicinal Chemistry, 2024).
# Read-outs that look alike come from different tables or passages of the source.
# Tests used:
# [1] = system: HEK-293 cells stably expressing GFP-LC3B; assay: Autophagic flux assay (GFP signal); type: cell-based, human
# [2] = system: HEK-293 cells stably expressing GFP-LC3B; settings: GFP signal percentage of DMSO control with SEM, ref 16 or 19; cited from earlier work
# [3] = system: αSyn dimerization in Neuro2A cells; settings: luminescence signal percentage of DMSO control with SEM, cited from earlier work
# [4] = system: αSyn dimerization in Neuro2A cells; assay: α-Synuclein dimerization assay (split Gaussia luciferase PCA); type: cell-based, mouse
smiles,measurement,setting,value
CO[C@H]1C[C@@H]2CC[C@@H](C)[C@@](O)(O2)C(=O)C(=O)N2CCCC[C@H]2C(=O)O[C@H]([C@H](C)C[C@@H]2CC[C@@H](O)[C@H](OC)C2)CC(=O)[C@H](C)/C=C(\C)[C@@H](O)[C@@H](OC)C(=O)[C@H](C)C[C@H](C)/C=C/C=C/C=C/1C [Rapamycin],GFP signal of the baseline,"[1]; rapamycin positive control (0.5 μM), maximum effect in this assay",about 65%
C[C@H](NC(=O)CCCc1ccccc1)C(=O)N1CCC[C@H]1c1nnn[nH]1 [HUP-28],autophagy at 10 μM,[2],71 ± 6%
same,αSyn dimerization at 10 μM,[3]; ref 16 or 19,75 ± 5%
Cc1nc(CCCc2ccccc2)oc1N1CCC[C@H]1C#N [HUP-55],αSyn dimerization at 10 μM,[3],85 ± 2%
"Cc1nc(CCCc2ccccc2)sc1N1CCC[C@H]1C#N [HUP-46, (S)-1-(4-Methyl-2-(3-phenylpropyl)thiazol-5-yl)pyrrolidine-2-carbonitrile]","autophagic flux, concentration–response",[1],concentration-dependent up to 20 μM
same,concentration of maximal efficacy in the αSyn dimerization assay,[4],10 µM
"CC(C)c1nc(CCc2c[nH]c3ccccc23)sc1N1CCCC1 [Compound 16k, 2-(2-(1H-Indol-3-yl)ethyl)-4-isopropyl-5-(pyrrolidin-1-yl)thiazole]",effect on autophagy (in words),"[1]; 10 μM, SAR discussion",loss of activity
same,effect on αSyn dimerization (in words),"[4]; 10 μM, SAR discussion",loss of activity
